According to patent US20130303575A1, “ADMINISTRATION OF AN INHIBITOR OF HDAC” (priority 2007, published 2013):
Entries after “also recorded” stand apart in the source; their conditions may differ. Marks after values point to notes of the source that are not given here.

Tests used:
[1] = Tolerability, DLT and MTD in patients with refractory solid tumors or lymphoma (Example 1); type: in vivo
Description: Tolerability was assessed by scheduled clinical assessments. Adverse events (AEs) were assessed using the National Cancer Institute Common Toxicity Criteria (CTC) version 2.0. […] MTD was defined as the highest dose at which no more than 1 of 6 patients experienced DLT during the first treatment cycle.

[2] = Safety, DLT, MTD and adverse events in patients with advanced solid tumors or lymphoma (Example 2); type: in vivo
Source text: DLT was defined as first course adverse events […] hematologic toxicity. The MTD was defined as one dose level below the dose at which […] of six patients experienced DLT.
Dose reduction by one level was applied for the occurrence of either grade 3 nonhematologic toxicity, grade 4 hematologic toxicity, persistent (≦2 weeks) grade 2 nonhematologic toxicity, or per the investigator's assessment. […] No limitation for the number of dose reductions was chosen.
At study entry, history, physical examination, laboratory studies (CBC, electrolytes, creatinine, blood urea nitrogen, total and direct bilirubin, ALT, AST, alkaline phosphatase, uric acid, prothrombin time, partial thromboplastin time, and urinalysis), computed tomography scan and chest x-ray and ECG were performed. Clinical assessments, including a physical examination and adverse event evaluation, were conducted at each follow-up. Adverse events were graded by the NCI Common Toxicity Criteria (version 2.0). Computed tomography scans and staging was performed every 6 weeks for the q14-day schedule. Disease-specific staging techniques, such as bone marrow aspirate and biopsy, flow cytometry, cutaneous lesion photography, or bone scan were used as indicated. Response evaluations used the Response Evaluation Criteria in Solid Tumors and the Cheson criteria for lymphoma. Multiple-gated acquisition (MUGA) scans were obtained on the q14-day schedule at base line, before course 2 and at each restaging. Laboratory studies (CBC with differential, chemistry 20, prothrombin time and […] thromboplastin time) were performed on days 1, 3, 5, 7 and repeated weakly.

Compound: Nc1ccccc1NC(=O)c1ccc(CNC(=O)OCc2cccnc2)cc1 [SNDX-275, N-(2-aminophenyl) 4-[N-(pyrid-3-yl)methyloxycarbonylaminomethyl]benzamide]
- maximum tolerated dose (MTD) ([1]; Schedule A, 2-6 mg/m^2 biweekly): not reached
- drug-related grade 4 adverse events ([1]; human, in vivo): No drug-related grade 4 (gr4) adverse events (AEs) were reported
- DLTs ([2]; Every 14 days, 2 mg/m^2): 0
- No. of Patients With First Course DLT ([2]; Every 14 days, 2 mg/m^2): 0
- DLTs ([2]; Every 14 days, 4 mg/m^2): 0
- No. of Patients With First Course DLT ([2]; Every 14 days, 4 mg/m^2): 0
- No. of Patients With First Course DLT ([2]; Every 14 days, 6 mg/m^2): 1
- DLTs ([2]; Every 14 days, 6 mg/m^2, anorexia, nausea, and vomiting): 3†
- DLTs ([2]; Every 14 days, 8 mg/m^2): 0
- No. of Patients With First Course DLT ([2]; Every 14 days, 8 mg/m^2): 0
- No. of Patients With First Course DLT ([2]; Every 14 days, 10 mg/m^2): 1
- DLTs ([2]; Every 14 days, 10 mg/m^2, anorexia, nausea, and vomiting): 3†
- No. of Patients With First Course DLT ([2]; Every 14 days, 12 mg/m^2): 2
- DLTs ([2]; Every 14 days, 12 mg/m^2, anorexia, nausea, vomiting, and fatigue): 7‡
- No. of Patients With First Course DLT ([2]; Every day x 28/42 days, 2 mg/m^2, 2 patients): 2
- MTD ([2]; daily schedule (once-a-day×28 every 6 weeks), first dose level 2 mg/m^2): exceeded at the first dose level
- Abdominal pain: % (All Grades) ([2]; human, in vivo): 7%
- Anemia: No. of Patients (All Grades) ([2]; human, in vivo): 8
- Anorexia: % (All Grades) ([2]; human, in vivo): 36%
- Anorexia: Grade 3 ([2]; human, in vivo): 4
- Anorexia: No. of Patients (All Grades) ([2]; human, in vivo): 10
- Bilirutin: % (All Grades) ([2]; human, in vivo): 14%
- Bilirutin: No. of Patients (All Grades) ([2]; human, in vivo): 4
- Chest pain: % (All Grades) ([2]; human, in vivo): 7%
- Chest pain: No. of Patients (All Grades) ([2]; human, in vivo): 2
- Constipation: % (All Grades) ([2]; human, in vivo): 7%
- Constipation: No. of Patients (All Grades) ([2]; human, in vivo): 2
- Hypermagnesemia: No. of Patients (All Grades) ([2]; human, in vivo): 2
- Hypoalbuminemia: % (All Grades) ([2]; human, in vivo): 64%
- Hypoalbuminemia: No. of Patients (All Grades) ([2]; human, in vivo): 18
- Hypocalcemia: % (All Grades) ([2]; human, in vivo): 21%
- Hypocalcemia: No. of Patients (All Grades) ([2]; human, in vivo): 6
- Hypokalemia: % (All Grades) ([2]; human, in vivo): 4%
- Hypokalemia: No. of Patients (All Grades) ([2]; human, in vivo): 1
- Hyponatremia: % (All Grades) ([2]; human, in vivo): 25%
- Hyponatremia: No. of Patients (All Grades) ([2]; human, in vivo): 7
- Infection w/o neutropenia: % (All Grades) ([2]; human, in vivo): 7%
- Infection w/o neutropenia: Grade 3 ([2]; human, in vivo): 0
- Infection w/o neutropenia: No. of Patients (All Grades) ([2]; human, in vivo): 2
- Leucopenia: % (All Grades) ([2]; human, in vivo): 21%
- Leucopenia: No. of Patients (All Grades) ([2]; human, in vivo): 6
- Libido: % (All Grades) ([2]; human, in vivo): 4%
- Libido: Grade 3 ([2]; human, in vivo): 0
- Libido: No. of Patients (All Grades) ([2]; human, in vivo): 1
- Myalgia: Grade 3 ([2]; human, in vivo): 0
- Myalgia: No. of Patients (All Grades) ([2]; human, in vivo): 1
- Nail changes: % (All Grades) ([2]; human, in vivo): 4%
- Nail changes: Grade 3 ([2]; human, in vivo): 0
- Nail changes: No. of Patients (All Grades) ([2]; human, in vivo): 1
- Nausea: % (All Grades) ([2]; human, in vivo): 64%
- Nausea: Grade 3 ([2]; human, in vivo): 4
- Nausea: No. of Patients (All Grades) ([2]; human, in vivo): 18
- Neurosensory deficits: % (All Grades) ([2]; human, in vivo): 7%
- Neurosensory deficits: No. of Patients (All Grades) ([2]; human, in vivo): 2
- Sinus Tachycardia: No. of Patients (All Grades) ([2]; human, in vivo): 1
- Stomatitis: % (All Grades) ([2]; human, in vivo): 4%
- Stomatitis: No. of Patients (All Grades) ([2]; human, in vivo): 1
- Sweating: % (All Grades) ([2]; human, in vivo): 4%
- Sweating: Grade 3 ([2]; human, in vivo): 0
- Sweating: No. of Patients (All Grades) ([2]; human, in vivo): 1
- Taste disturbance: % (All Grades) ([2]; human, in vivo): 29%
- Taste disturbance: Grade 3 ([2]; human, in vivo): 0
- Taste disturbance: No. of Patients (All Grades) ([2]; human, in vivo): 8
- tolerability ([2]; human, in vivo, po): intolerable
- MTD (and recommended phase II dose) ([2]; q14-day schedule): 10 mg/m^2
- SNDX-275-related first course grade 4 adverse events ([2]; q14-day schedule): no SNDX-275-related first course grade 4 adverse events
- dose-limiting toxicities ([2]; q14-day schedule): nausea, vomiting, anorexia and fatigue; also recorded: anorexia, nausea, vomiting and fatigue
- tolerability ([2]; q14-day schedule): reasonably well-tolerated
- Abdominal pain: No. of Patients (All Grades) ([2]; q14-day schedule, first course): 2
- Alkaline phosphatase: % (All Grades) ([2]; q14-day schedule, first course): 4%
- Alkaline phosphatase: No. of Patients (All Grades) ([2]; q14-day schedule, first course): 1
- Allergic reaction: % (All Grades) ([2]; q14-day schedule, first course): 4%
- Allergic reaction: Grade 3 ([2]; q14-day schedule, first course): 0
- Allergic reaction: No. of Patients (All Grades) ([2]; q14-day schedule, first course): 1
- Anemia: % (All Grades) ([2]; q14-day schedule, first course): 29%
- Cough: % (All Grades) ([2]; q14-day schedule, first course): 4%
- Cough: No. of Patients (All Grades) ([2]; q14-day schedule, first course): 1
- Creatinine: % (All Grades) ([2]; q14-day schedule, first course): 7%
- Creatinine: No. of Patients (All Grades) ([2]; q14-day schedule, first course): 2
- Dehydration: % (All Grades) ([2]; q14-day schedule, first course): 11%
- Dehydration: Grade 3 ([2]; q14-day schedule, first course): 0
- Dehydration: No. of Patients (All Grades) ([2]; q14-day schedule, first course): 3
- Depression: % (All Grades) ([2]; q14-day schedule, first course): 4%
- Depression: Grade 3 ([2]; q14-day schedule, first course): 0
- Depression: No. of Patients (All Grades) ([2]; q14-day schedule, first course): 1
- Diarrhea: % (All Grades) ([2]; q14-day schedule, first course): 7%
- Diarrhea: No. of Patients (All Grades) ([2]; q14-day schedule, first course): 2
- Dyspepsia: % (All Grades) ([2]; q14-day schedule, first course): 21%
- Dyspepsia: No. of Patients (All Grades) ([2]; q14-day schedule, first course): 6
- Fatigue: % (All Grades) ([2]; q14-day schedule, first course): 54%
- Fatigue: Grade 3 ([2]; q14-day schedule, first course): 1
- Fatigue: No. of Patients (All Grades) ([2]; q14-day schedule, first course): 15
- Fever: % (All Grades) ([2]; q14-day schedule, first course): 4%
- Fever: Grade 3 ([2]; q14-day schedule, first course): 0
- Fever: No. of Patients (All Grades) ([2]; q14-day schedule, first course): 1
- Flatulence: % (All Grades) ([2]; q14-day schedule, first course): 11%
- Flatulence: No. of Patients (All Grades) ([2]; q14-day schedule, first course): 3
- GI other: % (All Grades) ([2]; q14-day schedule, first course): 7%
- GI other: No. of Patients (All Grades) ([2]; q14-day schedule, first course): 2
- Headache: % (All Grades) ([2]; q14-day schedule, first course): 50%
- Headache: Grade 3 ([2]; q14-day schedule, first course): 0
- Headache: No. of Patients (All Grades) ([2]; q14-day schedule, first course): 14
- Hyperglycemia: % (All Grades) ([2]; q14-day schedule, first course): 11%
- Hyperglycemia: No. of Patients (All Grades) ([2]; q14-day schedule, first course): 3
- Hypermagnesemia: % (All Grades) ([2]; q14-day schedule, first course): 7%
- Lymphopenia: % (All Grades) ([2]; q14-day schedule, first course): 18%
- Lymphopenia: No. of Patients (All Grades) ([2]; q14-day schedule, first course): 5
- Middle ear infection: % (All Grades) ([2]; q14-day schedule, first course): 4%
- Middle ear infection: Grade 3 ([2]; q14-day schedule, first course): 0
- Middle ear infection: No. of Patients (All Grades) ([2]; q14-day schedule, first course): 1
- Muscle weakness: % (All Grades) ([2]; q14-day schedule, first course): 4%
- Muscle weakness: Grade 3 ([2]; q14-day schedule, first course): 0
- Muscle weakness: No. of Patients (All Grades) ([2]; q14-day schedule, first course): 1
- Myalgia: % (All Grades) ([2]; q14-day schedule, first course): 4%
- Neutropenia: % (All Grades) ([2]; q14-day schedule, first course): 25%
- Neutropenia: No. of Patients (All Grades) ([2]; q14-day schedule, first course): 7
- Pain other: % (All Grades) ([2]; q14-day schedule, first course): 4%
- Pain other: No. of Patients (All Grades) ([2]; q14-day schedule, first course): 1
- Pleuretic pain: % (All Grades) ([2]; q14-day schedule, first course): 4%
- Pleuretic pain: No. of Patients (All Grades) ([2]; q14-day schedule, first course): 1
- Rhinitis: % (All Grades) ([2]; q14-day schedule, first course): 4%
- Rhinitis: No. of Patients (All Grades) ([2]; q14-day schedule, first course): 1
- Sinus Tachycardia: % (All Grades) ([2]; q14-day schedule, first course): 3%
- Thrombooytopenia: % (All Grades) ([2]; q14-day schedule, first course): 36%
- Thrombooytopenia: No. of Patients (All Grades) ([2]; q14-day schedule, first course): 10
- Tremors: % (All Grades) ([2]; q14-day schedule, first course): 4%
- Tremors: No. of Patients (All Grades) ([2]; q14-day schedule, first course): 1
- Urinary electrolyte wasting: % (All Grades) ([2]; q14-day schedule, first course): 11%
- Urinary electrolyte wasting: No. of Patients (All Grades) ([2]; q14-day schedule, first course): 3
- Vomiting: % (All Grades) ([2]; q14-day schedule, first course): 39%
- Vomiting: Grade 3 ([2]; q14-day schedule, first course): 4
- Vomiting: No. of Patients (All Grades) ([2]; q14-day schedule, first course): 11
